Measured values from patent US8013006B2.

Each compound was assayed on HCV replicon (assay: microbe, parasite or virus in culture). Settings: Hepatitis C virus, 48 h, read-out: Replicon IC5Os μM.
Format: cell-based
With CCn1c(NC(=O)c2ccccc2)c(C#N)c2ccc(OC)cc21 [Compound 204] the IC50 was < 0.5 µM. CCn1c(-c2ccc(OCCN3CC[C@H](O)C3)cc2)c(C#N)c2ccc(OC)cc21 [Compound 264] gave an IC50 of 0.5 to 2 µM.

Same assay, conditions: Replicon IC50 values are determined by firefly luciferase signal; bicistronic replicon, 2 days; read-out: Replicon IC5Os
CCOc1ccc(C#Cc2c(C#N)c3ccc(OC)cc3n2CC)cc1 [Compound 149] gave an IC50 of 0.5 to 2 µM. CCn1c(C#Cc2ccccc2F)c(C#N)c2ccc(OC)cc21 [Compound 150] was tested, and the IC50 was 0.5 to 2 µM. Work on CCn1c(C#Cc2cccc(F)c2)c(C#N)c2ccc(OC)cc21 [Compound 151] yielded an IC50 of 0.5 to 2 µM. CCn1c(C#Cc2ccc(NC(=O)C(C)C)cc2)c(C#N)c2ccc(OC)cc21 [Compound 152] was tested, and the IC50 was > 2 µM. CCn1c(C#Cc2ccc(OC)c(OC)c2)c(C#N)c2ccc(OC)cc21 [Compound 159] showed an IC50 of 0.5 to 2 µM. With CCn1c(C#Cc2ccc(NC(=O)[C@@H]3CCCN3)cc2)c(C#N)c2ccc(OC)cc21 [Compound 162] the IC50 was > 2 µM. CCn1c(C#Cc2ccc(NC(=O)c3c[nH]cn3)cc2)c(C#N)c2ccc(OC)cc21 [Compound 163] was tested, and the IC50 was 0.5 to 2 µM. In the case of CCC(=O)Nc1ccc(C#Cc2c(C#N)c3ccc(O)cc3n2CC)cc1 [Compound 164], the IC50 is reported as 0.5 to 2 µM. In the case of CCn1c(C#Cc2ccc(NC(=O)CN)cc2)c(C#N)c2ccc(OC)cc21 [Compound 165], the IC50 is reported as > 2 µM. CCn1c(C#Cc2ccccc2N)c(C#N)c2ccc(OC)cc21 [Compound 169] gave an IC50 of 0.5 to 2 µM. With CCn1c(C#Cc2cccs2)c(C#N)c2ccc(OC)cc21 [Compound 170] the IC50 was 0.5 to 2 µM. Compound CCn1c(C#Cc2ccsc2)c(C#N)c2ccc(OC)cc21 [Compound 171] has an IC50 of 0.5 to 2 µM. CCn1c(C#Cc2ccccn2)c(C#N)c2ccc(OC)cc21 [Compound 174] was tested, and the IC50 was 0.5 to 2 µM. CCn1c(C#Cc2ccc(OC)cc2)c(C#N)c2cc(OC)ccc21 [Compound 177] gave an IC50 of 0.5 to 2 µM. CCn1c(C#Cc2ccc(C(F)(F)F)cc2)c(C#N)c2cc(OC)ccc21 [Compound 178] was tested, and the IC50 was > 2 µM. CCn1cc(C#N)c2cc(C(F)(F)F)ccc21 [Compound 179] gave an IC50 of 0.5 to 2 µM. CCn1c(-c2ccc(N(C)S(=O)(=O)CC)cc2)c(C#N)c2ccc(OC)cc21 [Compound 181] gave an IC50 of 0.5 to 2 µM. Compound CCn1c(C#Cc2cccc3ccccc23)c(C#N)c2ccc(O)cc21 [Compound 184] has an IC50 of 0.5 to 2 µM. With CCn1c(C#Cc2ccc(OC)cc2)c(C#N)c2ccc(O)cc21 [Compound 186] the IC50 was 0.5 to 2 µM. With CCn1c(C#Cc2ccc(Cl)cc2)c(C#N)c2ccc(O)cc21 [Compound 187] the IC50 was 0.5 to 2 µM. CCn1c(-c2ccc(NS(=O)(=O)CC)cc2)c(C#N)c2ccc(O)cc21 [Compound 190] was tested, and the IC50 was 0.5 to 2 µM. In the case of CCn1c(-c2ccc(N(C)S(C)(=O)=O)cc2)c(C#N)c2ccc(O)cc21 [Compound 191], the IC50 is reported as > 2 µM. With CCn1c(C#Cc2ccc(NC(=O)C3CCCC3)cc2)c(C#N)c2ccc(O)cc21 [Compound 195] the IC50 was 0.5 to 2 µM. In the case of CCn1c(C#Cc2ccc(OC)cc2)c(C#N)c2ccc(C(F)(F)F)cc21 [Compound 199], the IC50 is reported as > 2 µM. CCn1c(C#Cc2cccc(OC)c2)c(C#N)c2ccc(C(F)(F)F)cc21 [Compound 202] was tested, and the IC50 was 0.5 to 2 µM. In the case of CCn1c(NC(C)=O)c(C#N)c2ccc(OC)cc21 [Compound 203], the IC50 is reported as 0.5 to 2 µM. CCn1c(C#Cc2cccc(NS(C)(=O)=O)c2)c(C#N)c2ccc(OC)cc21 [Compound 208] was tested, and the IC50 was 0.5 to 2 µM. Work on CCn1c(C#Cc2cccc(NS(=O)(=O)C(C)C)c2)c(C#N)c2ccc(OC)cc21 [Compound 210] yielded an IC50 of 0.5 to 2 µM. Work on CCn1c(C#Cc2cccc(NC(=O)C(C)(C)C)c2)c(C#N)c2ccc(OC)cc21 [Compound 212] yielded an IC50 of 0.5 to 2 µM. In the case of CCn1c(NC(=O)c2cccc(F)c2)c(C#N)c2ccc(OC)cc21 [Compound 214], the IC50 is reported as < 0.5 µM. In the case of CCn1c(NC(=O)c2ccc(C#N)cc2)c(C#N)c2ccc(OC)cc21 [Compound 215], the IC50 is reported as 0.5 to 2 µM. Work on CCn1c(C#Cc2cccc(N3CCNC3=O)c2)c(C#N)c2ccc(OC)cc21 [Compound 222] yielded an IC50 of 0.5 to 2 µM. CCn1c(C#Cc2ccc(N)cc2)c(C#N)c2cc(OC)ccc21 [Compound 223] gave an IC50 of 0.5 to 2 µM. CCn1c(C#Cc2ccc(NC(C)=O)cc2)c(C#N)c2cc(OC)ccc21 [Compound 224] gave an IC50 of 0.5 to 2 µM. CCC(=O)Nc1ccc(C#Cc2c(C#N)c3cc(OC)ccc3n2CC)cc1 [Compound 225] was tested, and the IC50 was 0.5 to 2 µM. For CCn1c(C#Cc2ccc(NC(=O)COC)cc2)c(C#N)c2cc(OC)ccc21 [Compound 228], the IC50 was > 2 µM. For CCOc1ccc(-c2c(C#N)c3cc(OC)ccc3n2CC)cc1 [Compound 229], the IC50 was > 2 µM. In the case of COc1ccc2c(C#N)c(C#Cc3cccc4ccccc34)[nH]c2c1 [Compound 230], the IC50 is reported as > 2 µM. COc1ccc2c(C#N)c(C#Cc3cccc(O)c3)[nH]c2c1 [Compound 231] was tested, and the IC50 was > 2 µM. In the case of COc1ccc2c(C#N)c(C#Cc3cccc(Cl)c3)[nH]c2c1 [Compound 232], the IC50 is reported as > 2 µM. With COc1ccc2c(C#N)c(C#Cc3ccc(N)cc3)[nH]c2c1 [Compound 234] the IC50 was > 2 µM. With COc1ccc2c(C#N)c(C#Cc3ccc(N(C)C)cc3)[nH]c2c1 [Compound 235] the IC50 was 0.5 to 2 µM. In the case of COc1ccc2c(C#N)c(C#Cc3ccc(C)cc3)[nH]c2c1 [Compound 236], the IC50 is reported as > 2 µM. With COc1cccc(C#Cc2[nH]c3cc(OC)ccc3c2C#N)c1 [Compound 237] the IC50 was > 2 µM. With COc1ccc2c(C#N)c(C#Cc3ccccc3)[nH]c2c1 [Compound 238] the IC50 was > 2 µM. For CCn1c(-c2ccc(N)cc2)c(C#N)c2cc(OC)ccc21 [Compound 239], the IC50 was > 2 µM. For CCn1c(-c2ccc(C(=O)OC)cc2)c(C#N)c2cc(OC)ccc21 [Compound 240], the IC50 was > 2 µM. With CCn1c(-c2ccc(NC(C)=O)cc2)c(C#N)c2cc(OC)ccc21 [Compound 242] the IC50 was > 2 µM. With CCn1c(-c2ccc(C(=O)N3CCCC3)cc2)c(C#N)c2cc(OC)ccc21 [Compound 246] the IC50 was > 2 µM. In the case of CCn1c(-c2ccc(O)cc2)c(C#N)c2ccc(OC)cc21 [Compound 247], the IC50 is reported as > 2 µM. Work on CCn1c(-c2ccc(OCCO)cc2)c(C#N)c2ccc(OC)cc21 [Compound 249] yielded an IC50 of 0.5 to 2 µM. In the case of CCn1c(-c2ccc(SC)cc2)c(C#N)c2ccc(OC)cc21 [Compound 250], the IC50 is reported as > 2 µM. In the case of COc1ccc2c(C#N)c(-c3ccc4c(c3)OCO4)n(C)c2c1 [Compound 254], the IC50 is reported as > 2 µM. CCn1c(-c2ccc(O)cc2)c(C#N)c2ccc(C(F)(F)F)cc21 [Compound 256] was tested, and the IC50 was > 2 µM. CCn1c(-c2ccc(N)cc2)c(C#N)c2ccc(C(F)(F)F)cc21 [Compound 257] was tested, and the IC50 was > 2 µM. In the case of CCn1c(-c2cccc(N)c2)c(C#N)c2ccc(C(F)(F)F)cc21 [Compound 258], the IC50 is reported as > 2 µM. CCn1c(-c2ccc(N(C)C)cc2)c(C#N)c2ccc(C(F)(F)F)cc21 [Compound 259] was tested, and the IC50 was > 2 µM. In the case of CCn1c(-c2ccc3c(c2)OCO3)c(C#N)c2ccc(C(F)(F)F)cc21 [Compound 260], the IC50 is reported as > 2 µM. For CCn1c(-c2ccc(OCCN3CCN(C)CC3)cc2)c(C#N)c2ccc(OC)cc21 [Compound 263], the IC50 was 0.5 to 2 µM. For CCOc1ccc2c(C#N)c(-c3ccc(C(=O)N4CCOCC4)cc3)n(CC)c2c1 [Compound 270], the IC50 was > 2 µM. For CCn1c(-c2ccc(C(=O)N3CCOCC3)cc2)c(C#N)c2ccc(OC(C)C)cc21 [Compound 271], the IC50 was 0.5 to 2 µM. In the case of CCn1c(-c2ccc(NS(=O)(=O)C3CC3)cc2)c(C#N)c2ccc(OC)cc21 [Compound 272], the IC50 is reported as 0.5 to 2 µM. CCn1c(-c2ccc(NS(=O)(=O)CCl)cc2)c(C#N)c2ccc(OC)cc21 [Compound 273] was tested, and the IC50 was > 2 µM.
